# Experimental data taken from patent US10597388B2, “Pyridazinone herbicides” (FMC CORPORATION, priority 2014, dated 2020).
# Key:
# Format in all cases: in vivo
# [1] = tested on: morningglory (Ipomoea coccinea); assay: Test C greenhouse herbicide test, pre- and postemergence
# Outline: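 Pre- and postemergence greenhouse screen; values are visual control ratings, 0 meaning no effect and 100 complete kill, assigned relative to untreated plants after 13 to 15 d.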
# kochia (Kochia scoparia) = assay: Test C greenhouse herbicide test, postemergence
# Outline: (§1)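 Test chemicals were applied postemergence to greenhouse plants at the 1- to 4-leaf stage (2–18 cm tall) growing in peat/vermiculite medium. After 13–15 d, injury was rated visually against untreated controls on a 0–100 scale (0 = no effect, 100 = complete control).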
# [2] = tested on: oat, wild (wild oat, Avena fatua); assay: Test C greenhouse herbicide test, postemergence
# Outline: as §1
# [3] = tested on: chickweed (common chickweed, Stellaria media); assay: Test C greenhouse herbicide test, postemergence
# Outline: as §1
# [4] = tested on: galium (catchweed bedstraw, Galium aparine); assay: Test A greenhouse herbicide test, postemergence; conditions: for Plant response rating, Galium: 125 g ai/ha, visual rating after approx. 10 d, 0 to 100 scale (0 no effect, 100 complete control); for Galium plant response rating: 0 to 100 scale, 0 is no effect, 100 is complete control
# Outline: (§2)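 Pot-grown plants (loam soil/sand blend), 2–10 cm tall at the one- to two-leaf stage, received postemergence sprays of formulated test chemical. After about 10 d in the greenhouse, injury was rated visually against untreated controls on a 0 (no effect) to 100 (complete control) scale.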
# [5] = tested on: blackgrass (Alopecurus myosuroides); assay: Test A greenhouse herbicide test, postemergence; conditions: for Plant response rating, Blackgrass: 125 g ai/ha, visual rating after approx. 10 d, 0 to 100 scale (0 no effect, 100 complete control); for Blackgrass plant response rating: 0 to 100 scale, 0 is no effect, 100 is complete control
# Outline: as §2
# [6] = tested on: sedge, umbrella (small-flower umbrella sedge, Cyperus difformis); assay: Test B flooded paddy test; conditions: 250 g ai/ha, Flood; visual rating on scale of 0 to 100 where 0 is no effect and 100 is complete control; 13 to 15 d after treatment
# Outline: (§3)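 Plants grown to the 2-leaf stage. At treatment, pots were flooded to 3 cm above the soil, compound was applied directly to the paddy water, and that depth was held throughout. After 13 to 15 d in the greenhouse, response was rated visually against controls on a 0 (no effect) to 100 (complete control) scale.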
# rice (Oryza sativa) = assay: Test B flooded paddy test; conditions: 250 g ai/ha, Flood; visual rating on scale of 0 to 100 where 0 is no effect and 100 is complete control; 13 to 15 d after treatment
# Outline: as §3
# [7] = tested on: ducksalad (Heteranthera limosa); assay: Test B flooded paddy test; conditions: 250 g ai/ha, Flood; visual rating on scale of 0 to 100 where 0 is no effect and 100 is complete control; 13 to 15 d after treatment
# Outline: as §3
# [8] = tested on: barnyardgrass (Echinochloa crus-galli); assay: Test B flooded paddy test; conditions: 250 g ai/ha, Flood; visual rating on scale of 0 to 100 where 0 is no effect and 100 is complete control; 13 to 15 d after treatment
# Outline: as §3
# [9] = Postemergence, 31 g ai/ha, 0 to 100 scale (0 no effect, 100 complete control)
# [10] = Postemergence, 125 g ai/ha, scale 0 to 100, 0 is no effect, 100 is complete control
# [11] = Postemergence, 250 g ai/ha, scale 0 to 100, 0 no effect, 100 complete control, 13 to 15 d
# [12] = Preemergence, 31 g ai/ha, scale 0 to 100, 0 is no effect, 100 is complete control
# [13] = Preemergence, 62 g ai/ha, scale 0 to 100, 0 is no effect, 100 is complete control
# [14] = Preemergence, 125 g ai/ha, scale 0 to 100, 0 is no effect, 100 is complete control
# [15] = Preemergence, 250 g ai/ha, scale 0 to 100, 0 no effect, 100 complete control
# [16] = postemergence, 62 g ai/ha, scale 0 to 100, 0 no effect, 100 complete control
# [17] = Postemergence, 8 g ai/ha, scale 0 to 100 (0 no effect, 100 complete control)
# [18] = Postemergence, 16 g ai/ha, scale 0 to 100 (0 no effect, 100 complete control)
Compound,"Morningglory plant response rating [1, 9]","Plant response rating, Morningglory [1, 10]","Plant response rating, Morningglory [1, 11]","Plant response rating, Morningglory [1, 12]","Plant response rating, Morningglory [1, 13]","Morningglory plant response rating [1, 16]",Kochia plant response rating (kochia (Kochia scoparia); [9]),"Plant response rating, Kochia (kochia (Kochia scoparia); [10])","Plant response rating, Kochia (kochia (Kochia scoparia); [11])",Kochia plant response rating (kochia (Kochia scoparia); [16]),"Oat, Wild plant response rating [2, 9]","Plant response rating, Oat, Wild [2, 10]","Plant response rating, Oat, Wild [2, 11]","Oat, Wild plant response rating [2, 16]","Chickweed plant response rating [3, 9]","Chickweed plant response rating [3, 16]","Plant response rating, Sedge, Umbrella [6]","Plant response rating, Rice (rice (Oryza sativa))","Plant response rating, Ducksalad [7]","Plant response rating, Barnyardgrass [8]",further results
Cc1nn(C)c(=O)c(-c2c(C)sc3ccc(Br)cc23)c1O [Compound 22],100,100,100,30,85,100,90,95,95,95,40,80,80,50,90,90,0,0,0,0,"Plant response rating, Morningglory [1, 14]: 100; Morningglory plant response rating [1, 15]: 100; Plant response rating, Chickweed [3, 10]: 95; Plant response rating, Chickweed [3, 11]: 98; Plant response rating, Galium [4]: 90; Galium plant response rating ([4]; 500 g ai/ha): 100; Plant response rating, Blackgrass [5]: 50; Blackgrass plant response rating ([5]; 500 g ai/ha): 70"
Cc1ccc2ccccc2c1-c1c(O)c(Br)nn(C)c1=O [Compound 23],100,100,100,85,90,100,95,100,100,95,85,100,100,95,100,100,95,0,75,0,"Plant response rating, Morningglory [1, 14]: 95; Morningglory plant response rating [1, 15]: 98; Plant response rating, Chickweed [3, 10]: 100; Plant response rating, Chickweed [3, 11]: 100; Plant response rating, Galium [4]: 100; Galium plant response rating ([4]; 500 g ai/ha): 100; Plant response rating, Blackgrass [5]: 70; Blackgrass plant response rating ([5]; 500 g ai/ha): 80"
Cc1ccc2sc(C)c(-c3c(OC(=O)C(C)(C)C)c(C)nn(C)c3=O)c2c1 [Compound 26],98,100,100,–,–,100,80,90,100,70,60,95,90,80,95,95,0,0,0,0,"Plant response rating, Chickweed [3, 10]: 100; Plant response rating, Chickweed [3, 11]: 100; Plant response rating, Galium [4]: 70; Galium plant response rating ([4]; 500 g ai/ha): 90; Plant response rating, Blackgrass [5]: 30; Blackgrass plant response rating ([5]; 500 g ai/ha): 70"
Cc1ccc2ccccc2c1-c1c(O)c(I)nn(C)c1=O [Compound 29],85,100,100,80,95,100,60,75,85,60,60,85,95,55,95,95,60,0,55,0,"Plant response rating, Morningglory [1, 14]: 95; Morningglory plant response rating [1, 15]: 98; Plant response rating, Chickweed [3, 10]: 100; Plant response rating, Chickweed [3, 11]: 100; Plant response rating, Galium [4]: 90; Galium plant response rating ([4]; 500 g ai/ha): 90; Plant response rating, Blackgrass [5]: 70; Blackgrass plant response rating ([5]; 500 g ai/ha): 80"
CCc1ccc2ccccc2c1-c1c(O)c(C)nn(C)c1=O [Compound 32],90,100,100,80,90,100,50,90,95,50,70,100,100,90,90,95,0,0,0,0,"Plant response rating, Morningglory [1, 14]: 98; Morningglory plant response rating [1, 15]: 98; Plant response rating, Chickweed [3, 10]: 100; Plant response rating, Chickweed [3, 11]: 100; Galium plant response rating ([4]; 1000 g ai/ha): 100; Blackgrass plant response rating ([5]; 1000 g ai/ha): 90"
Cc1cc2ccccc2c(-c2c(O)c(C)nn(C)c2=O)c1C [Compound 34],85,95,98,70,80,98,10,60,85,45,80,90,90,85,90,90,0,0,0,0,"Plant response rating, Morningglory [1, 14]: 85; Morningglory plant response rating [1, 15]: 95; Plant response rating, Chickweed [3, 10]: 90; Plant response rating, Chickweed [3, 11]: 95; Plant response rating, Galium [4]: 90; Galium plant response rating ([4]; 500 g ai/ha): 100; Plant response rating, Blackgrass [5]: 80; Blackgrass plant response rating ([5]; 500 g ai/ha): 90"
Cc1nn(C)c(=O)c(-c2c(C)sc3c(C)cc(Cl)cc23)c1O [Compound 35],100,–,–,25,98,100,30,–,–,40,40,–,–,60,95,95,65,0,75,0,"Plant response rating, Morningglory [1, 17]: 100; Plant response rating, Morningglory [1, 18]: 100; Plant response rating, Morningglory ([1]; Preemergence, 16 g ai/ha, scale 0 to 100, 0 is no effect, 100 is complete control): 25; Plant response rating, Kochia (kochia (Kochia scoparia); [18]): 30; Plant response rating, Oat, Wild [2, 17]: 10; Plant response rating, Oat, Wild [2, 18]: 30; Plant response rating, Chickweed [3, 17]: 90; Plant response rating, Chickweed [3, 18]: 90; Plant response rating, Galium [4]: 100; Galium plant response rating ([4]; 500 g ai/ha): 100; Plant response rating, Blackgrass [5]: 70; Blackgrass plant response rating ([5]; 500 g ai/ha): 80"
